# Measured values as given in US4889859A, “Pyrido[2,3-d]pyrimidine derivatives” (priority 1988, dated 1989).
# Legend:
# mouse L1210 leukemia = details: literature; cited from earlier work
# [1] = literature; cited from earlier work
# dihydrofolate reductase = details: literature; cited from earlier work
# [2] = test system: human leukemia cell line (CCRF-CEM); test: IC50 determined in whole cell human leukemia cell line (CCRF-CEM); type: cell-based
# From the text: Representative IC50 values determined in whole cell human leukemia cell line (CCRF-CEM) are as follows: […]
# 6C3HED lymphosarcoma = 6C3HED lymphosarcoma in mice; type: in vivo
# [3] = test system: C3H mammary adenocarcinoma; test: C3H mammary adenocarcinoma implanted in mice, intraperitoneal treatment for five days; type: in vivo; details: intraperitoneally for five days
# Experimental: At a dosage of 100 mg/kg, 80% inhibition was observed.
compound,measurement,setting,value
"Nc1nc(N)c2cc(CCc3ccc(C(=O)N[C@@H](CCC(=O)O)C(=O)O)cc3)ccc2n1 [5,8,10-trideazaaminopterin]",activity against mouse L1210 leukemia,mouse L1210 leukemia,exhibits activity
"Nc1nc2ccc(CCc3ccc(C(=O)N[C@@H](CCC(=O)O)C(=O)O)cc3)cc2c(=O)[nH]1 [5,8,10-trideazafolic acid]",activity against mouse L1210 leukemia,mouse L1210 leukemia,only marginal activity
Nc1nc2ncc(CNc3ccc(C(=O)N[C@@H](CCC(=O)O)C(=O)O)cc3)cc2c(=O)[nH]1 [5-Deazafolic acid],cytotoxicity,[1],only weakly cytotoxic
"Nc1nc(N)c2nc(CCc3ccc(C(=O)N[C@@H](CCC(=O)O)C(=O)O)cc3)ccc2n1 [8,10-Dideazaaminopterin]",antimetabolic activity,[1],active
"Nc1nc2ccc(CCc3ccc(C(=O)N[C@@H](CCC(=O)O)C(=O)O)cc3)nc2c(=O)[nH]1 [8,10-Dideazafolic acid]",dihydrofolate reductase inhibition,dihydrofolate reductase,only marginally effective
Nc1nc(N)c2nc(CCc3ccc(C(=O)N[C@@H](CCC(=O)O)C(=O)O)cc3)cnc2n1 [10-Deazaaminopterin],antimetabolic activity,[1],highly active
Nc1nc2ncc(CCc3ccc(C(=O)N[C@@H](CCC(=O)O)C(=O)O)cc3)nc2c(=O)[nH]1 [10-deazafolic acid],antimetabolic activity,[1],no significant activity
"Nc1nc(O)c2c(n1)NCC(CCc1cccc(C(=O)N[C@@H](CCC(=O)O)C(=O)O)c1)C2 (stereo partly drawn) [A, N-(3-[2-(2amino-4-hydroxy-5,6,7,8-tetrahydropyrido[2,3-d]pyrimidin-6-yl)ethyl]benzoyl)-L-glutamic acid]",IC50,[2],0.015 µg/mL
"CN(Cc1cnc2nc(N)nc(N)c2n1)c1ccc(C(=O)N[C@@H](CCC(=O)O)C(=O)O)cc1 [Amethopterin, 10-methylaminopterin]",dihydrofolate reductase inhibition,dihydrofolate reductase,inhibits dihydrofolate reductase
"Nc1nc(O)c2c(n1)NCC(CCc1ccc(C(=O)N[C@@H](CCC(=O)O)C(=O)O)c(F)c1)C2 (stereo partly drawn) [Compound H, N-(2-fluoro-4-[2-(2-amino-4-hydroxy-5,6,7,8-tetrahydropyrido[2,3-d]pyrimidin-6-yl)ethyl]benzoyl)-L-glutamic acid]",IC50,[2],0.004 µg/mL
same,% INHIBITION,6C3HED lymphosarcoma; dose 25 (MK/KG),94%
same,TOXIC/TOTAL,6C3HED lymphosarcoma; dose 25 (MK/KG),0/9
same,% INHIBITION,6C3HED lymphosarcoma; dose 50 (MK/KG),95%
same,TOXIC/TOTAL,6C3HED lymphosarcoma; dose 50 (MK/KG),0/10
same,% INHIBITION,6C3HED lymphosarcoma; dose 100 (MK/KG),100%
same,TOXIC/TOTAL,6C3HED lymphosarcoma; dose 100 (MK/KG),0/10
same,% INHIBITION,6C3HED lymphosarcoma; dose 200 (MK/KG),100%
same,TOXIC/TOTAL,6C3HED lymphosarcoma; dose 200 (MK/KG),0/10
same,toxicity,[3]; 30 mg/kg and 100 mg/kg,No toxicity was observed
same,inhibition,[3]; 30 mg/kg,72%
same,inhibition,[3]; 100 mg/kg,80%
"Nc1nc(O)c2c(n1)NCC(CCc1ccc(F)c(C(=O)N[C@@H](CCC(=O)O)C(=O)O)c1)C2 (stereo partly drawn) [D, N-(2-fluoro-5-[2-(2-amino-4-hydroxy-5,6,7,8-tetrahydropyrido[2,3-d]pyrimidin-6-yl)ethyl]benzoyl)-L-glutamic acid]",IC50,[2],0.1 µg/mL
"Nc1nc(O)c2c(n1)NCC(CCc1ccc(C(=O)N[C@@H](CCC(=O)O)C(=O)O)c(Cl)c1)C2 (stereo partly drawn) [F, N-(2-chloro-4-[2-(2-amino-4-hydroxy-5,6,7,8-tetrahydropyrido[2,3-d]pyrimidin-6-yl)ethyl]benzoyl)-L-glutamic acid]",IC50,[2],0.027 µg/mL
